# Test results as given in patent publication US9181253B2 (The United States of America, as represented by the …, priority 2008, dated 2015).
# Values joined by “and” are separate entries in the source; they are usually repeats but may differ in a detail not shown here. Identical values can stand only once. Marks after values point to notes of the source that are not given here.
# Assays:
# [1] = target: human A3AR (Homo sapiens (Human), UniProt P0DMS8); experiment: [35S]GTPγS binding assay, membranes of CHO cells expressing human A3AR; assay type: biochemical; settings: stimulation measured by [35S]GTPγS binding assay
# Sequence of human A3AR (P0DMS8 whole entry): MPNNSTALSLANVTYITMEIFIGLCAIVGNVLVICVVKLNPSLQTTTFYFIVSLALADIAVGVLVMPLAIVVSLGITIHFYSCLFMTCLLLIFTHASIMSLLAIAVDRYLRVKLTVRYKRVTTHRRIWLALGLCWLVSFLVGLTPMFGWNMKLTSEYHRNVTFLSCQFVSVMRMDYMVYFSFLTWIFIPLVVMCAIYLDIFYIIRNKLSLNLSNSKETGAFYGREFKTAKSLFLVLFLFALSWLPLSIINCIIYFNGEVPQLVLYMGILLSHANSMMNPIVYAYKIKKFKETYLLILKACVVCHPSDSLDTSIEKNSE
# [2] = target: human A1 receptors (Homo sapiens (Human), UniProt P30542); experiment: Binding assay at human A1 receptors (Example 2); settings: CHO cells expressing human A1AR; radioligand [3H]CCPA or [3H]R-PIA; n = 3-5; read-out: Affinity (Ki, nM) A1
# Sequence of human A1 receptors (P30542 whole entry): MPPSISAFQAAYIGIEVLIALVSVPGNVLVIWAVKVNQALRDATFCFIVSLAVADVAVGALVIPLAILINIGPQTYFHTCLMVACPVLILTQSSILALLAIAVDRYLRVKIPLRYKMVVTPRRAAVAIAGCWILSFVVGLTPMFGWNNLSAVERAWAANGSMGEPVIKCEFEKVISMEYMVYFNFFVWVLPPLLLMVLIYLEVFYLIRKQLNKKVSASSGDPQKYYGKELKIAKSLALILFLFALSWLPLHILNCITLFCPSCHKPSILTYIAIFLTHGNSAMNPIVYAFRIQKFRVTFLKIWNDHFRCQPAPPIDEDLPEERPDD
# [3] = target: human A2A receptors (Homo sapiens (Human), UniProt P29274); experiment: Binding assay at human A2A receptors (Example 2); settings: HEK cells expressing human A2AAR; radioligand [3H]CGS21680; n = 3-5; read-out: Affinity (Ki, nM) A2A
# Sequence of human A2A receptors (P29274 whole entry): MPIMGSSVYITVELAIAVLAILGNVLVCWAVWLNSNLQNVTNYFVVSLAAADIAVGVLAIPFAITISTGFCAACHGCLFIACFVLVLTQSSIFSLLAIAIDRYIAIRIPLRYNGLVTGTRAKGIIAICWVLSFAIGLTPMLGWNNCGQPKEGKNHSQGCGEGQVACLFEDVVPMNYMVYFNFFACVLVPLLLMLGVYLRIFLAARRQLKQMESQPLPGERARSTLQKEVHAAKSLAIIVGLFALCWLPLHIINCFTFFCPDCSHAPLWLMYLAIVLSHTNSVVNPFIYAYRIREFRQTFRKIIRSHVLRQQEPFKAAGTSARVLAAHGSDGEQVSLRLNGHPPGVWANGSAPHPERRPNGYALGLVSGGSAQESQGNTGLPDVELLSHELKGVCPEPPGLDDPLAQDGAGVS
# [4] = target: T1, hA1AR (Homo sapiens (Human), UniProt P30542); experiment: Radioligand membrane binding at hA1AR (Example 6); settings: CHO cells expressing hA1AR; [3H]R-PIA; n = 3-5; read-out: Affinity Ki, nM A1
# T1 sequence (P30542 whole entry): as the sequence (P30542 whole entry) above
# Description: (§1) In addition, 800 μg/mL Geneticin and 500 μg/mL hygromycin were added to the A2A media and to the A1 and A3 media, respectively. […] The concentration of protein was determined using a BCA Protein Assay Kit from Pierce Biotechnology (Rockford, Ill.).
# (§2) Radioligand binding assays at A1, A2A, and A3ARs were performed according to the procedures described previously.
# (§3) All of the filters were washed 3 times with Tris-HCl, pH 7.5. […] Filters for A3AR binding were counted using a PerkinElmer Cobra II γ-counter.
# (§4) Binding and functional parameters were calculated using Prism 5.0 software (GraphPAD, San Diego, Calif., USA). IC50 values obtained from competition curves were converted to Ki values using the Cheng-Prusoff equation. Data were expressed as mean±standard error.
# [5] = target: hA2AAR (Homo sapiens (Human), UniProt P29274); experiment: Radioligand membrane binding at hA2AAR (Example 6); settings: HEK293 cells expressing hA2AAR; [3H]CGS21680; n = 3-5; read-out: Affinity Ki, nM A2A
# Sequence of hA2AAR (P29274 whole entry): as the sequence (P29274 whole entry) above
# Description: as §1, §2, §3, §4
# [6] = target: hA3AR (Homo sapiens (Human), UniProt P0DMS8); experiment: Radioligand membrane binding at hA3AR (Example 6); settings: CHO cells expressing hA3AR; [125I]I-AB-MECA; n = 3-5; read-out: Affinity Ki, nM A3
# Sequence of hA3AR (P0DMS8 whole entry): as the sequence (P0DMS8 whole entry) above
# [7] = target: T1, hA1AR; experiment: A1AR functional assay, inhibition of forskolin-stimulated cyclic AMP production in AR-transfected CHO cells; assay type: cell-based; settings: for inhibition at 10 µM: CHO, read-out: % Inhibition, cyclic AMP A1; for % Inhibition, cyclic AMP A1: maximal efficacy at 10 μM, in comparison to effect (100%) of full agonist CPA at 10 μM, n = 3-5
# [8] = tested on: seizures induced by 6 Hz corneal stimulation in mice; experiment: 6 Hz minimal clonic seizure test; assay type: in vivo; settings: mice, i.p., measured at 1 h post injection
# Description: (§5) For the MES and 6 Hz tests, a drop of anesthetic/electrolyte solution (0.5% tetracaine hydrochloride in 0.9% saline) was applied to the eyes of each animal prior to placement of the corneal electrodes. The electrical stimulus in the MES test was 50 mA, 60 Hz, for mice. Abolition of the hindleg tonic extensor component of the seizure was used as the endpoint.
# The ability of the test substance to prevent seizures induced by 6 Hz corneal stimulation (32 mA, 3 sec duration) in mice was evaluated at a convulsive current that evokes a seizure in 97% of the population tested (CC97). Six Hz seizures are characterized by a minimal clonic phase that is followed by stereotyped, automatistic behaviors described originally as being similar to the aura of human patients with partial seizures. Toman, J. E. et al., Tex. Rep.
# Animals not displaying this behavior were considered protected.
# [9] = tested on: MES seizures in mice; experiment: Maximal electroshock (MES) seizure test; assay type: in vivo; settings: i.p., 1 mg/kg
# Description: The electrical tests used were the maximal electroshock (MES) seizure test, the 6 Hz minimal clonic seizure test, and the corneal kindled mouse test. The chemical test was the s.c. metrazol seizure tests. Time of peak effect (TPE) is deduced from data generated in initial qualitative test procedures. Five groups of 4 animals each are administered the test compound, and each group is tested at one of five different time intervals: ¼, ½, 1, 2 and 4 h. The time point at which the compound produces the most activity/toxicity was chosen as TPE.
# as §5
# [10] = tested on: s.c. metrazol seizures in mice; experiment: s.c. metrazol (scMET) seizure test; assay type: in vivo; settings: i.p., 1 mg/kg
# From the text: In vivo anticonvulsant activity was established by both electrical and chemoconvulsant seizure tests which have been described previously. White, H. S., et al., Ital. J. Neurol. […] White, H. S. et al., Antiepileptic Drugs ([…].; Meldrum, B. S. ed), 1995, pp 99-110, Raven Press, New York.; and Smith, M., et al., Neurotherapeutics 2007, 4, 12-17. The electrical tests used were the maximal electroshock (MES) seizure test, the 6 Hz minimal clonic seizure test, and the corneal kindled mouse test. The chemical test was the s.c. metrazol seizure tests. Time of peak effect (TPE) is deduced from data generated in initial qualitative test procedures. […] The time point at which the compound produces the most activity/toxicity was chosen as TPE.
# [11] = tested on: mice; experiment: Minimal behavioral toxicity test, rotorod procedure; settings: i.p., measured at 1 h post injection
Molecule,Ki [4],Ki [5],Ki [6],inhibition at 10 µM [7],also measured
"O[C@@H]1[C@H](O)[C@@H]2C[C@@H]2[C@H]1n1cnc2c(N[C@@H]3C[C@H]3c3ccccc3)nc(Cl)nc21 (relative stereo) [Compound 13b, (1′R,2′R,3′S,4′R,5′S)-4′-[2-Chloro-6-(trans-2-phenylcyclopropylamino)purine]-2′,3′-O-dihydroxybicyclo-[3.1.0]hexane]",,,,,% Efficacy A3 [1]: 9.7 ± 4.1%
"O[C@@H]1[C@H](O)[C@@H]2C[C@@H]2[C@H]1n1cnc2c(NCc3cccc(Cl)c3)nc(Cl)nc21 [Compound 8b, (1′R,2′R,3′S,4′R,5′S)-4′-[2-Chloro-6-(3-chlorobenzylamino)purine]-2′,3′-O-dihydroxybicyclo-[3.1.0]hexane]",,,,,Ki [2]: 3070 ± 1500 nM; Ki [3]: 4510 ± 910 nM; % Efficacy A3 [1]: 2.9 ± 3.7%
"O[C@@H]1[C@H](O)[C@@H]2C[C@@H]2[C@H]1n1cnc2c(NCc3cccc(Br)c3)nc(Cl)nc21 [Compound 9b, (1′R,2′R,3′S,4′R,5′S)-4′-[2-Chloro-6-(3-bromobenzylamino)purine]-2′,3′-O-dihydroxybicyclo-[3.1.0]hexane]",,,,,Ki [2]: 1760 ± 1010 nM
"COc1ccc(OC)c(CNc2nc(Cl)nc3c2ncn3[C@H]2[C@H](O)[C@H](O)[C@@H]3C[C@@H]32)c1 [Compound 11b, (1′R,2′R,3′S,4′R,5′S)-4′-[2-Chloro-6-(2,5-dimethoxybenzylamino)purine]-2′,3′-O-dihydroxybicyclo-[3.1.0]hexane]",,,,,Ki [3]: 2620 ± 730 nM; % Efficacy A3 [1]: 4.6 ± 3.8%
"COc1ccc(O)c(CNc2nc(Cl)nc3c2ncn3[C@H]2[C@H](O)[C@H](O)[C@@H]3C[C@@H]32)c1 [Compound 12b, (1′R,2′R,3′S,4′R,5′S)-4′-[2-Chloro-6-(2-hydroxy-5-methoxybenzylamino)purine]-2′,3′-O-dihydroxybicyclo-[3.1.0]hexane]",,,,,Ki [2]: 1110 ± 300 nM; Ki [3]: 6870 ± 1440 nM; % Efficacy A3 [1]: 0.4 ± 1.3%
"CC[C@H](Nc1nc(Cl)nc2c1ncn2[C@H]1[C@H](O)[C@H](O)[C@@H]2C[C@@H]21)C1CC1 [Compound 213, (1R,2R,3S,4R,5S)-4-(2-Chloro-6-((S)-1-cyclopropylpropylamino)-9H-purin-9-yl)bicyclo[3.1.0]hexane-2,3-diol]",150 ± 10 nM,4910 ± 430 nM,780 ± 70 nM,57.9 ± 1.1%,
"CC(C)[C@@H](Nc1nc(Cl)nc2c1ncn2[C@H]1[C@H](O)[C@H](O)[C@@H]2C[C@@H]21)C1CC1 [Compound 214, (1R,2R,3S,4R,5S)-4-(2-Chloro-6-((R)-1-cyclopropyl-2-methyl-propylamino)-9H-purin-9-yl)bicyclo[3.1.0]hexane-2,3-diol]",76 ± 8 nM,1570 ± 180 nM,780 ± 80 nM,33.8 ± 2.3%,
"CC(C)[C@H](Nc1nc(Cl)nc2c1ncn2[C@H]1[C@H](O)[C@H](O)[C@@H]2C[C@@H]21)C1CC1 [Compound 215, (1R,2R,3S,4R,5S)-4-(2-Chloro-6-((S)-1-cyclopropyl-2-methyl-propylamino)-9H-purin-9-yl)bicyclo[3.1.0]hexane-2,3-diol]",150 ± 50 nM,3650 ± 370 nM,1720 ± 140 nM,20.8 ± 6.1%,
"O[C@@H]1[C@H](O)[C@@H]2C[C@@H]2[C@H]1n1cnc2c(N[C@@H](C3CCC3)C3CC3)nc(Cl)nc21 [Compound 216, (1R,2R,3S,4R,5S)-4-(2-Chloro-6-((R)-cyclopropylcyclobutylmethylamino)-9H-purin-9-yl)bicyclo[3.1.0]hexane-2,3-diol]",270 ± 60 nM,5470 ± 300 nM,2930 ± 480 nM,,"% Inhibition, cyclic AMP A1 [7]: 33.4 ± 5.2%"
"O[C@@H]1[C@H](O)[C@@H]2C[C@@H]2[C@H]1n1cnc2c(N[C@H](C3CCC3)C3CC3)nc(Cl)nc21 [Compound 217, (1R,2R,3S,4R,5S)-4-(2-Chloro-6-((S)-cyclopropylcyclobutylmethylamino)-9H-purin-9-yl)bicyclo[3.1.0]hexane-2,3-diol]",120 ± 40 nM,6450 ± 720 nM,2790 ± 720 nM,,"% Inhibition, cyclic AMP A1 [7]: 18.1 ± 6.8%"
"O[C@@H]1[C@H](O)[C@@H]2C[C@@H]2[C@H]1n1cnc2c(N[C@H](CC3CC3)C3CC3)nc(Cl)nc21 [Compound 218, (1R,2R,3S,4R,5S)-4-(2-Chloro-6-((R)-1,2-dicyclopropylethylamino)-9H-purin-9-yl)bicyclo[3.1.0]hexane-2,3-diol]",490 ± 90 nM,4840 ± 400 nM,1760 ± 210 nM,18.4 ± 2.1%,
"O[C@@H]1[C@H](O)[C@@H]2C[C@@H]2[C@H]1n1cnc2c(N[C@@H](CC3CC3)C3CC3)nc(Cl)nc21 [Compound 219, (1R,2R,3S,4R,5S)-4-(2-Chloro-6-((S)-1,2-dicyclopropylethylamino)-9H-purin-9-yl)bicyclo[3.1.0]hexane-2,3-diol]",170 ± 20 nM,2550 ± 170 nM,550 ± 50 nM,24 ± 5.2%,
"OC[C@H]1O[C@@H](n2cnc3c(NC4CCCC4)nc(Cl)nc32)[C@H](O)[C@@H]1O [Compound 235b, 2-chloro-N^6-cyclopentyladenosine]",,,,,"ED50 ([8]; Mus musculus, ip, read-out: 6 Hz model ED50): 0.12 mg/kg; 6 Hz model ED50 [8]: 0.12^c mg/kg; MES model, number of animals protected from convulsions [9]: 1 out of 4 at; scMET model, number of animals protected from convulsions [10]: 1 out of 4; Behavioral toxicity TD50 [11]: 0.84 mg/kg and 0.84^c mg/kg"
"(1R,2R,3S,4R,5S)-4-(2-Chloro-6-(endo-norbornyl)-9H-purin-9-yl)bicyclo[3.1.0]hexane-2,3-diol [Compound 113]",82.6 ± 15.8 nM,2450 ± 90 nM,315 ± 48 nM,,"% Inhibition, cyclic AMP A1 [7]: 62.1 ± 18.5%"
"(1R,2R,3S,4R,5S)-4-(2-Chloro-6-(exo-norbornyl)-9H-purin-9-yl)bicyclo[3.1.0]hexane-2,3-diol [Compound 114]",200 ± 30 nM,4080 ± 170 nM,236 ± 43 nM,,"% Inhibition, cyclic AMP A1 [7]: 27.8 ± 6.2%"
